According to paper PMC4876444, “Two-Photon Enzymatic Probes Visualizing Sub-cellular/Deep-brain Caspase Activities in Neurodegenerative Models” (Scientific Reports, 2016):

How the values were obtained:
HeLa cells = test: Permeability of free dye and probes in live cells (fluorescence imaging); type: cell-based, human; conditions: live HeLa cells, probes 24 μM (AAN 5 μM), 1 h, 37 °C, one-photon fluorescence imaging with LysoTracker
Experimental: Supplementary Figure 5. Detection of caspase activities in live mammalian cells. (a) One-photon images of AAN (5 μM)/probes (24 μM)/DMSO (blank) in live HeLa cells after 1-h incubation together with LysoTracker. (Panels 1-7) bright field; (Panels 8-14) λex = 405 nm, λem = 420-480 nm (indicative of probes, blue); (Panels 15-21) λex = 405 nm, λem = 470-500 nm (indicative of AAN, green); (Panels 22-28) LysoTracker (λex = 543 nm, λem = 560-615 nm, red); (Panels 29-35) merged images of blue/red channels. Scale bar: 20 μm. (b) Bioimaging of NIH/3T3 cells transfected with active caspase-1 (Panels 2/3/5/6; 50 ng)/caspase-3 (Panels 8/9; 15 ng)/caspase-8 (Panels 11/12; 5 ng) with/without inhibitor treatment (Panels 3/6/9/12, 50 μM of Z-VAD-FMK incubated for 1 h before probes were added) as well as control cells (Panels 1/4/7/10, no caspase transfection) by using C1RB (24 μM)/C1FS (12 μM) for caspase-1, C3RA (24 μM) for caspase-3 and C8RA (24 μM) for caspase-8. Cells were co-stained with membrane tracker. (Green) signals from caspase-cleaved probes (λex = 760 nm, λem = 480-550 nm for all probes, except for C1FS with λem = 450-550 nm). (Red) membrane tracker (λex = 650 nm, λem = 655-740 nm). (Inset) bright field. Scale bar = 10 μm. […]
XTT assay. The cytotoxicity of our probes was determined by using the XTT colorimetric cell proliferation kit (Roche) following manufacturer’s guidelines. […]

[1] = test system: caspase-3/-7-like activities in brain slices; test: TPFM of caspase-3 activation in brain slices of ethanol-intoxicated mouse; conditions: 200 μM, 3 h prior to C3RA
Experimental: Figure 4 Imaging endogenous caspase activities in deep tissues. (a) TPFM of caspase-3 activation in brain slices of ethanol-intoxicated 7-day-old C57BL/6 mouse using C3RA (120 μM, 3 h). Top: 3D images of the mouse brain slice taken along the Z-axis from 0 to 160 μm at 10x magnification. Bottom: images taken at a depth of 120 μm at 40x magnification. […]: control slices (saline-treated); panels 2/6/4/8: treated with caspase-3/7 inhibitor I (200 μM, 3 h). Scale bar = 50 μm. (b) RFU readings extracted from (a) (FTPFM, blue bars) versus those from in vitro enzymatic assays using lysates from the same brain slices (RFU, orange bars). The signal from saline controls was set as “0” and that from ethanol-treated samples was set as “1” in RFU quantification. Due to the base-level active caspase-3 in the saline controls, negative readings were shown with inhibitor-treated samples. (c) WB analysis of caspase-3/-1/-8 activation in lysates of the same mouse brain slices shown in (a). (d) Normalized RFU readings from in vitro enzymatic assays using brain lysates (300 μg) of saline/ethanol treated mice after incubation with C1RB/C3RA/C8RA (6 μM) for 1 h at 37 °C.
All two-photon images were taken on a Leica TCS SP5X Confocal Microscope System. […]

| Structure (SMILES) | cell permeability (HeLa cells) | effect of inhibitor pre-treatment on C3RA fluorescence in brain slices [1] |
| --- | --- | --- |
| CC(=O)c1ccc2cc(N)ccc2c1 [AAN, 2-acetyl-6-aminonaphthalene, reference compound] | diffuse freely |  |
| COC[C@@H]1CCCN1S(=O)(=O)c1ccc2c(c1)C(=O)C(=O)N2 [caspase-3/7 inhibitor I, reference compound] |  | completely abolished the fluorescence |
